Tested on: keratinocytes
Test: Cell viability of keratinocytes after cryopreservation in 10% DMSO in RPMI (alamarBlue)
Type: cell-based
Settings: keratinocytes cryopreserved in vials or culture plates in 10% DMSO in RPMI
Procedure: In the results discussed below, measurement of Cell Viability and Proliferation in FIGS. 1-4 employed AlamarBlue™ by measuring the oxidation/reduction reactions that take place within cells. AlamarBlue™ was added directly to the plates containing cultured cells in culture medium and incubated for 3 hours at 37° C. Upon reduction, AlamarBlue™ changes color and this color change can be measured and quantified. The culture plates were read using a Gemini EM fluorescent microplate reader ([…]) at an excitation wavelength of 544 nm and an emission wavelength of 590 nm. […] Keratinocytes were cryopreserved in vials or in culture plates in 10% DMSO in RPMI. Metabolic activity was measured immediately after thawing and for several days post thaw. Cell viability (in percent of untreated controls) was calculated as the mean (±SEM) of 120 replicates.

C[S+](C)[O-] [DMSO, dimethyl sulfoxide]
cell yields after cryopreservation (cell viability in percent of untreated controls): below 50%
